According to patent publication US9790407B2, “Aqueous detergent soluble coating and adhesive and methods of temporary bonding for manufacturing” (priority 2013, dated 2017):

Tests used:
[1] = Water solubility of carboxylic acid coatings (Example 1); conditions: acidic coating; materials dissolved in n,n-dimethylacetamide (DMAC)
Experimental: (§1) Water solubility is tested and thermal resistance is indicated for each material.

[2] = Detergency solubility of carboxylic acid coatings in KOH based system (Example 1); type: physicochemical; conditions: acidic coating, materials dissolved in DMAC
Experimental: as §1

| Water solubility (observed) [1] | Detergency (KOH based system) [2] | SMILES |
| --- | --- | --- |
| Limited/no | Yes | O=C(O)c1cccc(C(=O)O)c1 [Isophthalic acid] |
| Limited/no | Yes | O=C(O)c1ccc(O)cc1 [P-hydroxybenzoic acid] |

The remaining lines, values behind:

| SMILES | Water solubility (observed) [1] | Detergency (KOH based system) [2] |
| --- | --- | --- |
| O=C(O)/C=C/C(=O)O [Fumaric Acid] | Limited/no | Partial |
| O=C(O)c1ccccc1C(=O)O [Phthalic Acid] |  | Yes |
| O=C(O)c1ccc(C(=O)O)cc1 [Terephthalic acid] |  | Partial |
